Read-outs that look alike come from different tables or passages of the source.
Test system: DosRST regulon
Type: cell-based
Conditions: for WT DMSO/WT HC102A Fold change / log2 Fold change: upregulated
[1] = Rv3134c, WT Mtb treated with HC102A compared to DMSO
[2] = Rv3839, WT Mtb treated with HC102A compared to DMSO
[3] = WT Mtb treated with HC102A compared to DMSO
[4] = WT Mtb treated with HC102A, replicate 1
[5] = WT Mtb treated with HC102A, replicate 2

With `C[C@@H]1CC(C)(C)C[C@]2(C1)NC(=O)NC2=O` (racemic) [HC102A, 7,7,9-trimethyl-1,3-diazaspiro[4.5]decane-2,4-dione] the “Counts per million (CPM) WT_HC102A1, gene MT3219” value (Rv3133c, WT Mtb treated with HC102A, replicate 1) was 233.8 CPM, the “Counts per million (CPM) WT_HC102A2, gene MT3219” value (Rv3133c, WT Mtb treated with HC102A, replicate 2) was 174 CPM and the “Fold change, gene MT3220” value [1] was 0.04505. For the same compound, the “log2 Fold change, gene MT3220” value [1] was −4.472, the “Counts per million (CPM) WT_HC102A1, gene MT3220” value (Rv3134c, WT Mtb treated with HC102A, replicate 1) was 264.6 CPM and the “Counts per million (CPM) WT_HC102A2, gene MT3220” value (Rv3134c, WT Mtb treated with HC102A, replicate 2) was 171.8 CPM. The “Fold change, gene MT3947” value [2] was 0.2314, the “log2 Fold change, gene MT3947” value [2] was −2.111 and the “Counts per million (CPM) WT_HC102A1, gene MT3947” value (Rv3839, WT Mtb treated with HC102A, replicate 1) was 25.93 CPM. The “Counts per million (CPM) WT_HC102A2, gene MT3947” value (Rv3839, WT Mtb treated with HC102A, replicate 2) was 7.681 CPM, the “Fold change, gene MT0598” value [3] was 0.2421 and the “Fold change, gene MT0600” value [3] was 0.1586. The “Fold change, gene MT1096” value [3] was 0.3436, the “Fold change, gene MT1385” value [3] was 0.3712 and the “Fold change, gene MT1775” value [3] was 0.2046. For the same compound, the “Fold change, gene MT1777” value [3] was 0.1265, the “Fold change, gene MT2088” value [3] was 0.0678 and the “Fold change, gene MT2090” value [3] was 0.1133. The “Fold change, gene MT3209” value [3] was 0.4, the “Fold change, gene MT3210” value [3] was 0.04949 and the “log2 Fold change, gene MT0598” value [3] was −2.046. The “log2 Fold change, gene MT0600” value [3] was −2.656, the “log2 Fold change, gene MT1096” value [3] was −1.541 and the “log2 Fold change, gene MT1385” value [3] was −1.43. For the same compound, the “log2 Fold change, gene MT1775” value [3] was −2.289, the “log2 Fold change, gene MT1777” value [3] was −2.983 and the “log2 Fold change, gene MT2088” value [3] was −3.883. For the same compound, the “log2 Fold change, gene MT2090” value [3] was −3.141, the “log2 Fold change, gene MT3209” value [3] was −1.322 and the “log2 Fold change, gene MT3210” value [3] was −4.337. The “Counts per million (CPM) WT_HC102A1, gene MT0598” value [4] was 57.71 CPM, the “Counts per million (CPM) WT_HC102A1, gene MT0600” value [4] was 129.6 CPM and the “Counts per million (CPM) WT_HC102A1, gene MT1096” value [4] was 9.103 CPM. For the same compound, the “Counts per million (CPM) WT_HC102A1, gene MT1385” value [4] was 56.65 CPM, the “Counts per million (CPM) WT_HC102A1, gene MT1775” value [4] was 172.1 CPM and the “Counts per million (CPM) WT_HC102A1, gene MT1777” value [4] was 11.46 CPM. The “Counts per million (CPM) WT_HC102A1, gene MT2088” value [4] was 254.1 CPM, the “Counts per million (CPM) WT_HC102A1, gene MT2090” value [4] was 3,874.46 CPM and the “Counts per million (CPM) WT_HC102A1, gene MT3209” value [4] was 5.689 CPM. The “Counts per million (CPM) WT_HC102A1, gene MT3210” value [4] was 0.5689 CPM, the “Counts per million (CPM) WT_HC102A2, gene MT0598” value [5] was 66.55 CPM and the “Counts per million (CPM) WT_HC102A2, gene MT0600” value [5] was 211.3 CPM. The “Counts per million (CPM) WT_HC102A2, gene MT1096” value [5] was 3.811 CPM, the “Counts per million (CPM) WT_HC102A2, gene MT1385” value [5] was 35.06 CPM and the “Counts per million (CPM) WT_HC102A2, gene MT1775” value [5] was 61.8 CPM. For the same compound, the “Counts per million (CPM) WT_HC102A2, gene MT1777” value [5] was 24.1 CPM, the “Counts per million (CPM) WT_HC102A2, gene MT2088” value [5] was 225.6 CPM and the “Counts per million (CPM) WT_HC102A2, gene MT2090” value [5] was 5,782.55 CPM. For the same compound, the “Counts per million (CPM) WT_HC102A2, gene MT3209” value [5] was 5.394 CPM, the “Counts per million (CPM) WT_HC102A2, gene MT3210” value [5] was 0.1173 CPM and the “Counts per million (CPM) WT_HC102A1” value (gene MT3514 (Rv3406), replicate 1) was 494.4 CPM. The “Counts per million (CPM) WT_HC102A2” value (gene MT3514 (Rv3406), replicate 2) was 168 CPM, the “WT DMSO/WT HC102A Fold change” value (gene MT3514 (Rv3406)) was 6.242 and the “log2 Fold change” value (gene MT3514 (Rv3406)) was 2.642. For the same compound, the “Counts per million (CPM) WT_HC102A1” value (gene MT3515 (Rv3407), replicate 1) was 191.1 CPM, the “Counts per million (CPM) WT_HC102A2” value (gene MT3515 (Rv3407), replicate 2) was 103.1 CPM and the “WT DMSO/WT HC102A Fold change” value (gene MT3515 (Rv3407)) was 2.831. The “log2 Fold change” value (gene MT3515 (Rv3407)) was 1.501.

From patent US11717508B2, “Compounds, compositions, and methods for inhibiting bacterial growth” (priority 2016, dated 2023)
